Results from patent publication US8921376B2, “Pyrrolopyridines useful as inhibitors of protein kinase” (Vertex Pharmaceuticals Incorporated, priority 2005, dated 2014).

Assays:
Assay type in all cases: biochemical
ROCK I = ROCK I (Homo sapiens, UniProt Q13464); assay: ROCK-I inhibition assay (radioactive enzyme assay, MBP substrate); conditions: enzyme inhibition, Ki(app), Table 5
Summary of the method: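 Human ROCK at 5 nM phosphorylated 27 μM myelin basic protein with 13 μM [γ-33P]ATP (final) in HEPES pH 7.5, MgCl2, NaCl, DTT and 1.5% DMSO. Reactions ran 2 h at room temperature before TCA quench and filter-plate scintillation counting. After background subtraction, data were fit to give Ki(app).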

JAK2 = JAK2 (Homo sapiens, UniProt O60674); assay: JAK2 inhibition assay (as Example 3 with JAK-2 enzyme); conditions: enzyme inhibition, Table 5
Summary of the method: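 Radiometric JAK2 kinase assay: poly(Glu)4Tyr substrate at final 15 μM, ATP at final 12 μM with [33P]; buffer 100 mM HEPES pH 7.4, 1 mM DTT, 10 mM MgCl2, 25 mM NaCl, 0.01% BSA. 20 min at 25 °C, TCA-stopped, 33P incorporation counted after filter capture.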

JAK3 = target: T1, JAK3 (Homo sapiens, UniProt P52333); assay: JAK3 inhibition assay (33P incorporation into poly(Glu)4Tyr); conditions: enzyme inhibition, Table 5
T1 sequence (P52333 1-1124): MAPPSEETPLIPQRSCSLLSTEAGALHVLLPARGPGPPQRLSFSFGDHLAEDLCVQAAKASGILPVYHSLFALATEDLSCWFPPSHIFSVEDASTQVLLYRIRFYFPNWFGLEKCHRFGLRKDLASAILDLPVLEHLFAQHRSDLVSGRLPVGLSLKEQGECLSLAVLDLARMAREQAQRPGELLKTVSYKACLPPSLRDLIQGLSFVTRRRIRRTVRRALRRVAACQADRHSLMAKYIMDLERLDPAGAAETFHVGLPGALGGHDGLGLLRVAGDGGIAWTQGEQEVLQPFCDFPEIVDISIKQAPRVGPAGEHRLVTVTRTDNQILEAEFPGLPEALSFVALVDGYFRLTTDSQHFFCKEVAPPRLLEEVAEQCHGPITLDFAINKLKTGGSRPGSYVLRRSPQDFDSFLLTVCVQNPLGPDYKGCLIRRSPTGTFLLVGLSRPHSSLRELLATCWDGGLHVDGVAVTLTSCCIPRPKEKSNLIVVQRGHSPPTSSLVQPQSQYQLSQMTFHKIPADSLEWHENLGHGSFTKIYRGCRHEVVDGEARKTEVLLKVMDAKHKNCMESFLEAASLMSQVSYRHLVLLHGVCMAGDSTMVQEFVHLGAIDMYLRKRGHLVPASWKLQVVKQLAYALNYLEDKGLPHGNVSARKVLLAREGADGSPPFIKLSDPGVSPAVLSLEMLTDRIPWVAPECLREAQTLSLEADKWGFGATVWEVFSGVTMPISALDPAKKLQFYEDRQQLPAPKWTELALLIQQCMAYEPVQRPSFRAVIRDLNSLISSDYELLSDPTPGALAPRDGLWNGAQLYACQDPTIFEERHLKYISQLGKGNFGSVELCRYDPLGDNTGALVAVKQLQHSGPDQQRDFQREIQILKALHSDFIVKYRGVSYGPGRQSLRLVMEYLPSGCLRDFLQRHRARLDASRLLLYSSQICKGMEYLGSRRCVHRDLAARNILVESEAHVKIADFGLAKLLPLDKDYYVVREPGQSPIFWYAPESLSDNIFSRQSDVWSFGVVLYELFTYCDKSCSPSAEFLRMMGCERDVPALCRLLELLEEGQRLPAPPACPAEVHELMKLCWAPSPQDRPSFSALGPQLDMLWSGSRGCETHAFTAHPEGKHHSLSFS
Summary of the method: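 Human JAK3 at 1 nM phosphorylated 1 μM poly(Glu)4Tyr using 5 μM [33P]ATP in HEPES pH 7.4 buffer with MgCl2, DTT and BSA. Reactions ran 20 min at 25° C. and were stopped with TCA. 33P incorporation was measured by scintillation after glass-fiber filter capture.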

Chain of ROCK I (Q13464 whole entry): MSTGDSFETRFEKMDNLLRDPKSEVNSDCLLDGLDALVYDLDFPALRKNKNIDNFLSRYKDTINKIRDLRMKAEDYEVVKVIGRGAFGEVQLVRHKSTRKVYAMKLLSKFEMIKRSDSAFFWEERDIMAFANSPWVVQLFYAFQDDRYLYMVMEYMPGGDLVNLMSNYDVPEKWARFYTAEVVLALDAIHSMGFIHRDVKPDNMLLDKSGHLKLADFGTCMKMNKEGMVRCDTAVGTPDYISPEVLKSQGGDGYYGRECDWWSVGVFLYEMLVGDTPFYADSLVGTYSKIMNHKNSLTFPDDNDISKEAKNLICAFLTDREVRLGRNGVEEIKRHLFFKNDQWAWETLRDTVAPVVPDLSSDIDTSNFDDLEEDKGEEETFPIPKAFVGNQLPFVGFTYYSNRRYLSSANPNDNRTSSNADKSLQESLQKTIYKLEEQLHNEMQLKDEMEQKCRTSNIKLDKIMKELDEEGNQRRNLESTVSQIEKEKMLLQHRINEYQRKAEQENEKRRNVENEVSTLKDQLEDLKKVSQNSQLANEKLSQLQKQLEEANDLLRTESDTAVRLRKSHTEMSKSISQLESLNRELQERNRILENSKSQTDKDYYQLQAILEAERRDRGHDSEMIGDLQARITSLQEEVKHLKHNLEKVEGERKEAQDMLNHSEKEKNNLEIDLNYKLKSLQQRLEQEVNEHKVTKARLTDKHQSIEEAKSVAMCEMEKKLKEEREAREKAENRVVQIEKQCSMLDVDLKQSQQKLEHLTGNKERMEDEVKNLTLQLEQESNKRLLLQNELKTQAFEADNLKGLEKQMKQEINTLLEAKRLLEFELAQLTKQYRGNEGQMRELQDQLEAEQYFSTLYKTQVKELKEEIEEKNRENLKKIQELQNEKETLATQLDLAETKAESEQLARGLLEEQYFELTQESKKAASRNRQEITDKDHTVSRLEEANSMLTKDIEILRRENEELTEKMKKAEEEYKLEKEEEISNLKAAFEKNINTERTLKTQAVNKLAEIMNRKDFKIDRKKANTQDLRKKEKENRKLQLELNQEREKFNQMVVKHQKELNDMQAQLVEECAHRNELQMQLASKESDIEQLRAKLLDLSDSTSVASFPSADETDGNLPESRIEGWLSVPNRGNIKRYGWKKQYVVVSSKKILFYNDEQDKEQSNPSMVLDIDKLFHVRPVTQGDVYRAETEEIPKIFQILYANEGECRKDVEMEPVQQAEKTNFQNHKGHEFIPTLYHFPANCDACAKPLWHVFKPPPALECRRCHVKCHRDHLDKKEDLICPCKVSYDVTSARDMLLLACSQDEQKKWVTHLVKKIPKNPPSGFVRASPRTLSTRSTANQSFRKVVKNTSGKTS
Chain of JAK2 (O60674 whole entry): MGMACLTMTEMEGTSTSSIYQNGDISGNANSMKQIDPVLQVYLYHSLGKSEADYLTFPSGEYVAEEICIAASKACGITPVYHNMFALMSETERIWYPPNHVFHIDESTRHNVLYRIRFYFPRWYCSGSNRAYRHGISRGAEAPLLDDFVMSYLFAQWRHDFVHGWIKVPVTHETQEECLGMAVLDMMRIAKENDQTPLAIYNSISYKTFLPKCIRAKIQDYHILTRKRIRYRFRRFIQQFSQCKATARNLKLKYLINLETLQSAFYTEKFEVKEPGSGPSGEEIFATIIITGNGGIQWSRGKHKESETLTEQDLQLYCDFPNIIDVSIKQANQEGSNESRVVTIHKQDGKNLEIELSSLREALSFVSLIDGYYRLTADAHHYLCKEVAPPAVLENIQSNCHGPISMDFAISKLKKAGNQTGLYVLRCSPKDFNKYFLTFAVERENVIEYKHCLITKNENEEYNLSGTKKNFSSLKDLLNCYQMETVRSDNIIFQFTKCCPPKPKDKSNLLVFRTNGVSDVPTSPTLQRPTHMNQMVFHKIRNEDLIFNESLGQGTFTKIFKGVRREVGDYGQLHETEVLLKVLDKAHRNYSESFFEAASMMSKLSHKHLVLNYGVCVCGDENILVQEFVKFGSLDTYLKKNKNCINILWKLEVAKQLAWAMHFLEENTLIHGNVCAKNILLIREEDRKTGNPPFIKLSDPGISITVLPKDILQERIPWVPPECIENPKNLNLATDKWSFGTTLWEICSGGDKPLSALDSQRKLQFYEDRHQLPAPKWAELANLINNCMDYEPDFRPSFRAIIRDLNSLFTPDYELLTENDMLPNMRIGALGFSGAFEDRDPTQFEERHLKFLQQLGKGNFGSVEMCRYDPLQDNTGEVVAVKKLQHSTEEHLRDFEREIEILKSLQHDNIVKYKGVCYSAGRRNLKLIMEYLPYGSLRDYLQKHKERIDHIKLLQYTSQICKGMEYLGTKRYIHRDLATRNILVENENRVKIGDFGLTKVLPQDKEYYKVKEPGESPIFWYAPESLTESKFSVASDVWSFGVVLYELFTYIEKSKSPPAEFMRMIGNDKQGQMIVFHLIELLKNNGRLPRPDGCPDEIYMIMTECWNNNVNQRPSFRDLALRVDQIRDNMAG

Question: How did the Ki (ROCK I) turn out when Cc1ccc(-c2ccnc3[nH]ccc23)cc1C [compound 110, 4-(3,4-Dimethyl-phenyl)-1H-pyrrolo[2,3-b]pyridine] was run?
Answer: Its Ki is less than 500 nM.

Question: What about the Ki (JAK2) of the same compound?
Answer: Its Ki is less than 500 nM.

Question: What about the Ki (JAK3) of the same compound?
Answer: Its Ki is less than 500 nM.

Question: With Cn1cc(-c2ccnc3[nH]ccc23)cn1 [compound 111, 4-(1-Methyl-1H-pyrazol-4-yl)-1H-pyrrolo[2,3-b]pyridine] as the compound, how does the Ki (ROCK I) read?
Answer: The Ki was less than 500 nM.

Question: What about the Ki (JAK2) of the same compound?
Answer: Its Ki is less than 500 nM.

Question: And the Ki (JAK3)?
Answer: Its Ki is less than 500 nM.

Question: Which Ki (ROCK I) does the source give for Cc1cc(C)cc(-c2ccnc3[nH]ccc23)c1 [compound 112, 4-(3,5-Dimethyl-phenyl)-1H-pyrrolo[2,3-b]pyridine] here?
Answer: The Ki was less than 500 nM.

Question: What about the Ki (JAK2) of the same compound?
Answer: The Ki was less than 500 nM.

Question: What about the Ki (JAK3) of the same compound?
Answer: The Ki was 500 to 5000 nM.

Question: With FC(F)(F)c1cccc(-c2ccnc3[nH]ccc23)c1 [compound 113, 4-(3-Trifluoromethyl-phenyl)-1H-pyrrolo[2,3-b]pyridine] as the compound, how does the Ki (ROCK I) read?
Answer: The Ki was less than 500 nM.

Question: And the Ki (JAK2)?
Answer: Its Ki is less than 500 nM.

Question: And the Ki (JAK3)?
Answer: The Ki was 500 to 5000 nM.

Question: What does the source list for Nc1cccc(-c2ccnc3[nH]ccc23)c1 [compound 114, 3-(1H-Pyrrolo[2,3-b]pyridin-4-yl)-phenylamine]?
Answer: Ki (ROCK I): < 500 nM; Ki (JAK2): 500 to 5000 nM; Ki (JAK3): 500 to 5000 nM

Question: c1cc(-c2ccnc3[nH]ccc23)c2ccoc2c1 [compound 115, 4-Benzofuran-4-yl-1H-pyrrolo[2,3-b]pyridine] was tested. Which Ki (ROCK I) did it give?
Answer: The Ki was less than 500 nM.

Question: And the Ki (JAK2)?
Answer: The Ki was less than 500 nM.

Question: And the Ki (JAK3)?
Answer: The Ki was less than 500 nM.

Question: What does the source list for CC(C)Oc1ccc(-c2ccnc3[nH]ccc23)cc1 [compound 116, 4-(4-Isopropoxy-phenyl)-1H-pyrrolo[2,3-b]pyridine]?
Answer: Ki (ROCK I): < 500 nM; Ki (JAK2): < 500 nM; Ki (JAK3): < 500 nM

Question: How did the Ki (ROCK I) turn out when COC(=O)c1ccccc1-c1ccnc2[nH]ccc12 [compound 117] was run?
Answer: The Ki was 500 to 5000 nM.

Question: And the Ki (JAK2)?
Answer: Its Ki is greater than 5000 nM.

Question: What about the Ki (JAK3) of the same compound?
Answer: The Ki was greater than 5000 nM.

Question: With CC(=O)Nc1ccccc1-c1ccnc2[nH]ccc12 [compound 118] as the compound, how does the Ki (ROCK I) read?
Answer: The Ki was 500 to 5000 nM.

Question: And the Ki (JAK2)?
Answer: The Ki was greater than 5000 nM.

Question: What about the Ki (JAK3) of the same compound?
Answer: Its Ki is greater than 5000 nM.

Question: What does the source list for Nc1ccccc1-c1ccnc2[nH]ccc12 [compound 119]?
Answer: Ki (ROCK I): 500 to 5000 nM; Ki (JAK2): > 5000 nM; Ki (JAK3): > 5000 nM

Question: C[C@H](Nc1ccnc(-c2ccnc3[nH]ccc23)n1)C(=O)NCC(F)(F)F [compound 120, (S)-2-(2-(1H-pyrrolo[2,3b]pyridin-4-yl)pyrimidin-4-ylamino)-N-(2,2,2-trifluoroethyl)propanamide] was tested. Which Ki (ROCK I) did it give?
Answer: The Ki was 500 to 5000 nM.

Question: What about the Ki (JAK2) of the same compound?
Answer: Its Ki is 500 to 5000 nM.

Question: And the Ki (JAK3)?
Answer: Its Ki is less than 500 nM.

Question: For C[C@H](Nc1nc(-c2ccnc3[nH]ccc23)ncc1F)C(=O)NCC(F)(F)F [compound 121, (S)-2-(5-fluoro-2-(1H-pyrrolo[2,3b]pyridin-4-yl)pyrimidin-4-ylamino)-N-(2,2,2-trifluoroethyl)propanamide], which Ki (ROCK I) is on record?
Answer: Its Ki is 500 to 5000 nM.

Question: And the Ki (JAK2)?
Answer: Its Ki is 500 to 5000 nM.

Question: What about the Ki (JAK3) of the same compound?
Answer: Its Ki is less than 500 nM.

Question: Which results are given for C[C@H](Nc1cccc(-c2ccnc3[nH]ccc23)n1)C(=O)NCC(F)(F)F [compound 122, (S)-2-(6-(1H-pyrrolo[2,3b]pyridin-4-yl)pyridin-2-ylamino)-N-(2,2,2-trifluoroethyl)propanamide]?
Answer: Ki (ROCK I): 500 to 5000 nM; Ki (JAK2): 500 to 5000 nM; Ki (JAK3): < 500 nM

Question: With CC(C)(O)c1cccc(-c2ccnc3[nH]ccc23)n1 [compound 123, 2-(6-(1H-pyrrolo[2,3-b]pyridin-4-yl)pyridin-2-yl)propan-2-ol] as the compound, how does the Ki (ROCK I) read?
Answer: Its Ki is less than 500 nM.

Question: And the Ki (JAK2)?
Answer: The Ki was less than 500 nM.

Question: And the Ki (JAK3)?
Answer: Its Ki is less than 500 nM.

Question: How did the Ki (ROCK I) turn out when Cc1n[nH]c(C)c1-c1ccnc2[nH]ccc12 [compound 124, 4-(3,5-Dimethyl-1H-pyrazol-4-yl)-1H-pyrrolo[2,3-b]pyridine] was run?
Answer: Its Ki is 500 to 5000 nM.

Question: What about the Ki (JAK2) of the same compound?
Answer: The Ki was greater than 5000 nM.

Question: And the Ki (JAK3)?
Answer: The Ki was 500 to 5000 nM.

Question: For CC(C)(C(=O)CC#N)c1cccc(-c2ccnc3[nH]ccc23)n1 [compound 125, 4-(6-(1H-pyrrolo[2,3-b]pyridin-4-yl)pyridin-2-yl)-4-methyl-3-oxopentanitrile], which Ki (ROCK I) is on record?
Answer: Its Ki is less than 500 nM.

Question: What about the Ki (JAK2) of the same compound?
Answer: The Ki was less than 500 nM.

Question: And the Ki (JAK3)?
Answer: The Ki was less than 500 nM.

Question: How did the Ki (ROCK I) turn out when Clc1cnc2[nH]ccc2c1NC1CCCCC1 [compound 126, 5-chloro-N-cyclohexyl-1H-pyrrolo[2,3-b]pyridin-4-amine] was run?
Answer: The Ki was less than 500 nM.

Question: What about the Ki (JAK2) of the same compound?
Answer: The Ki was less than 500 nM.

Question: What about the Ki (JAK3) of the same compound?
Answer: Its Ki is less than 500 nM.
